Results: paper PMC11056026, “The Evaluation of Teleost-Derived Antimicrobial Peptides Against Neisseria gonorrhoeae” (Cureus, 2024)
Where two headings read alike, the source gives them in different places. Residues, ends and D or L forms follow the SMILES beside them. No end group written: not given here.

What was measured:
[1] = test system: ME180 endocervical epithelial cells; conditions: 24 hours; for Cell survival of ME180 cells vs non-treatment control (CCK-8): 10 μg/mL AMP, three independent experiments
Method: ME180 cells were seeded into 96-well microtiter plates at a 5 × 10^3 cells/well density and incubated for 24 hours. A final concentration of 10 μg/mL of AMP and 0.1% of positive control Triton-X were added to the well and incubated for 24 hours. Next, the Cell Counting Kit-8 (CCK-8) solution (Tools Biotech Inc., New Taipei City, Taiwan) was added and incubated for one hour. The absorbance at 450 nm was measured in each well, and the cytotoxicity level was analyzed according to the manufacturer's instructions.
GC colonization and infection only start after the GC's adherence to epithelial cells in the reproductive tract. Thus, adherence plays a crucial role in the initial colonization of GC on mucosal surfaces. […] Since these AMP may also affect epithelial cell viability, examining the effects of three AMP on both epithelial cells, and GC adherence is needed. To examine the effects of AMP on epithelial cells, ME180 cells were incubated with or without 10 μg/mL AMP for 24 hours, and the CCK-8 cell viability assay was conducted. Triton-X, a membrane-disrupting agent at a final concentration of […], was administered as a positive control.
ME180 cells were grown on a 96-well plate, and 10 μg/mL of designated AMP was added with or without inoculating MS11. (A) To measure cell cytotoxicity, cells with or without AMP or 0.1% Triton-X were incubated for 24 hours, and CCK-8 assay was performed to determine the cell survival rate. (B) To evaluate GC adherence, cells with MS11 were incubated for three hours to determine the adherent GC. GC treated with 0.5 μg/mL of azithromycin (AZI) served as a positive control. Non-treated GC was served as control (Ct). The bars represented the means of each group with standard deviations. Statistical significance was determined using a one-way ANOVA followed by post hoc Dunnett's test.

[2] = test system: Neisseria gonorrhoeae MS11 strain; conditions: 24 h
Method: (§1) The synthetic AMP (Table 1) were purchased (Mission Bio, Taipei, Taiwan), and the inhibition activity test against GC was adapted from Bergman et al.. Briefly, GC were suspended in GCP broth to a concentration of 105 colony-forming units (CFU)/mL, and 180 μL of this suspension was added to each well of a 96-well plate with 20 μL peptide solution at various concentrations. The final concentration of AMP in each well ranged from 0.08 to 20 μg/mL. The samples were incubated at 37°C with 5% CO2 for 24 hours. After the incubation, 10 μL of the suspension from each well was spotted on GCK agar plates.

[3] = test system: WHO gonococcal reference strain Z (WHO Z); conditions: GCP broth, 10^5 CFU/mL, 24 h, 37°C, 5% CO2, lowest concentration reducing >=90% of bacteria vs non-AMP control, means of three independent experiments
Method: as §1

[4] = test system: Neisseria gonorrhoeae MS11 strain; assay: Antibiotic susceptibility testing, disk diffusion (CLSI); format: cell-based; parameters: key: R, resistant; I, intermediate; S, susceptible; conditions: CLSI criteria, 24 h, 37°C, 5% CO2
Method: (§2) Briefly, the overnight colonies (16-20 hours) were suspended and diluted in GCP broth to a concentration of optical density (OD) = 0.1 at 650 nm. The bacterial suspension was then plated onto GC agar plates using swabs, and the disks were placed on the bacterial lawn with sterile tweezers. The plates were incubated at 37°C with 5% CO2 for 24 hours. The diameter of the inhibition zone was measured to determine the susceptibility according to the criteria recommended by the CLSI standard.

[5] = test system: WHO gonococcal reference strain Z (WHO Z); assay: as above; format: cell-based, Neisseria gonorrhoeae; parameters: key: R, resistant; I, intermediate; S, susceptible; conditions: CLSI criteria, 24 h, 37°C, 5% CO2
Method: as §2

[6] = test system: Neisseria gonorrhoeae MS11; assay: Transmission electron microscopy of treated GC; format: cell-based; conditions: AMP 10 μg/mL or azithromycin 0.5 μg/mL, four hours
Text: The bars represented the means of each group with standard deviations.

[7] = test system: Neisseria gonorrhoeae MS11 adherence to ME180 endocervical epithelial cells; assay: Adherence assay of GC to ME180 cells; format: cell-based; conditions: MS11 on ME180 cells, azithromycin 0.5 μg/mL, three hours
Method: Cells were then lysed with 1% saponin in sterile phosphate-buffered saline (PBS) and spread onto the GCK agar plate. The number of adherent GC was counted to determine the effect of AMP.
Non-treated GC was served as control (Ct).
To assess the effects of AMP on adherence, MS11 was inoculated onto ME180 cells in the presence or absence of AMP for three hours. The cells were then collected and plated on GCK agar. Adherent GC were determined by colony counts. Azithromycin was used as a control for comparison.

[8] = test system: HeLa cells; conditions: cited from earlier work
[9] = test system: HT1080 cells; conditions: HT1080, 15 μg/mL or more; cited from earlier work
[10] = test system: Listeria monocytogenes; conditions: cited from earlier work
Text: (§3) [26], indicating the low efficacy of TH1-5. Piscidins were reported widely as the broadest teleost-derived AMP against several gram-positive and gram-negative species.

[11] = test system: Vibrio spp.; conditions: 100 μg/mL or above; cited from earlier work
Text: as §3

## FIHHIIGGLFSAGKAIHRLIRRRRR [TP4] [listing 1 of 2 here]
[1]
  Cell survival of ME180 cells vs non-treatment control (CCK-8): No significant difference

## FIHHIIGGLFSVGKHIHSLIHGH [TP3]
[2]
  MIC of AMP: >10 µg/mL
[3]
  MIC of AMP: >20 µg/mL

## CC(C)(C)CC(C)(C)c1ccc(OCCO)cc1 [Triton-X, reference compound]
[1]; positive control, final concentration of 0.01% (0.1% elsewhere in the source)
  Decrease in cell survival of ME180 cells (CCK-8): 88%

## CC[C@H]1OC(=O)[C@H](C)[C@@H](O[C@H]2C[C@@](C)(OC)[C@@H](O)[C@H](C)O2)[C@H](C)[C@@H](O[C@@H]2O[C@H](C)C[C@H](N(C)C)[C@H]2O)[C@](C)(O)C[C@@H](C)CN(C)[C@H](C)[C@@H](O)[C@]1(C)O [Azithromycin]
[4]
  Antibiotic susceptibility: S
[5]
  Antibiotic susceptibility: R
[6]
  Morphological and structural changes of GC (TEM): intact membranes
[7]
  Reduction of adherent GC compared to the AMP-treated group: significantly higher reduction

## CO/N=C(\C(=O)N[C@@H]1C(=O)N2C(C(=O)O)=C(CSc3nc(=O)c(=O)[nH]n3C)CS[C@H]12)c1csc(N)n1 [Ceftriaxone]
[4]
  Antibiotic susceptibility: S
[5]
  Antibiotic susceptibility: I

## Pardaxin
[8]
  Concentration inhibiting cells: ≥ 15 µg/mL
[9]
  Inhibition of cells: not

## FIHHIIGGLFSAGKAIHRLIRRRRR [TP4] [listing 2 of 2 here]
[3]
  MIC of AMP: 10 µg/mL

## FFHHIFRGIVHVGKTIHRLVTG [PIS] [listing 1 of 2 here]
[3]
  MIC of AMP: 10 µg/mL

## CC[C@H](C)[C@H](NC(=O)CNC(=O)[C@@H]1CCCN1C(=O)[C@@H](NC(=O)[C@H](CS)NC(=O)[C@H](CS)NC(=O)CNC(=O)[C@H](CS)NC(=O)[C@H](CS)NC(=O)[C@H](Cc1ccccc1)NC(=O)[C@H](CCCNC(=N)N)NC(=O)[C@H](CS)NC(=O)[C@H](CCCCN)NC(=O)[C@@H](NC(=O)CN)[C@@H](C)CC)[C@@H](C)O)C(=O)N[C@@H](CS)C(=O)NCC(=O)N[C@H](C(=O)N[C@@H](CS)C(=O)N[C@@H](CS)C(=O)N[C@@H](CCCNC(=N)N)C(=O)N[C@@H](Cc1ccccc1)C(=O)O)C(C)C [TH1-5] (H-GIKCRFCCGCCTPGICGVCCRF-OH; N-terminus and C-terminus assumed)
[2]; MS11 strain, GCP broth, 10^5 CFU/mL, 37°C, 5% CO2, lowest concentration reducing >=90% of bacteria vs non-AMP control, means of three independent experiments
  MIC of AMP: >10 µg/mL
[3]
  MIC of AMP: >20 µg/mL
[10]
  Concentration exhibiting antibacterial activity: ≥ 100 µg/mL
[11]
  Antibacterial activity: not

## FFHHIFRGIVHVGKTIHRLVTG [PIS] [listing 2 of 2 here]
[1]
  Cell survival of ME180 cells vs non-treatment control (CCK-8): No significant difference
